Reference: patent US5445951A, “Regioselective enzymatic deacylation of sucrose esters in anhydrous organic media” (priority 1993, dated 1995)

What was measured:
proleather = assay: Nucleophile screening for proleather catalyzed deacetylation of SOA in diisopropyl ether; assay type: biochemical, Bacillus subtilis; conditions: nucleophile 200 mM; for % conv: 66 hrs; for regiochem: peak height ratio 1'-OH / 6'-OH heptaacetate
Description: (§1) Nucleophile screening for alcalase, proleather or lipase AP 12 catalyzed deacetylation of SOA. A scintillation vial was charged successively with 100 mg of powdered enzyme prepared as described, 1.0 ml of 20 mM sucrose octaacetate (SOA) and 200 mM of the nucleophile dissolved in diisopropyl ether. Following a 5 sec sonication, the vial was incubated in a controlled-temperature shaker at 45° C. and 300 RPM for 66 hrs. A 200 μl aliquot of the reaction mixture was withdrawn and centrifuged. The supernatant was collected and evaporated under a stream of N2. The residue was reconstituted in 200 μl of acetonitrile and 10 μl of this solution was analyzed by HPLC. For screening concentration effects on enzyme activity, the same protocol was followed except the nucleophile concentration was varied from 0 to 2000 mM.

alcalase = target: T1, alcalase (Bacillus licheniformis, UniProt P00780); assay: Nucleophile screening for alcalase catalyzed deacetylation of SOA in diisopropyl ether; assay type: biochemical; conditions: for regiochem: nucleophile 200 mM, peak height ratio 1'-OH / 6'-OH heptaacetate
T1 construct: purchased Novo Nordisk (gift)
T1 sequence (P00780 106-379): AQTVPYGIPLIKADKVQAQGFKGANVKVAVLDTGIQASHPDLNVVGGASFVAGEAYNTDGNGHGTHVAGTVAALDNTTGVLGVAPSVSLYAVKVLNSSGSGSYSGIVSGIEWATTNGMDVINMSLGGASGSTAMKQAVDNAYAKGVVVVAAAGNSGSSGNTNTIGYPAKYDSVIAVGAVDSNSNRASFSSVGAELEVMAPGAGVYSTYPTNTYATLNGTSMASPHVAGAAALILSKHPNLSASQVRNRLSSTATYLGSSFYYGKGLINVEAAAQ
Description: as §1

lipase AP 12 = assay: Nucleophile screening for lipase AP 12 catalyzed deacetylation of SOA in diisopropyl ether; assay type: biochemical, Aspergillus niger; conditions: lipase AP 12, nucleophile 200 mM, 66 hrs
Description: as §1

lipase AY 30 [1] = assay: Effect of the solvent on lipase AY 30 SOA deacetylation; assay type: biochemical, Candida cylindracea; conditions: lipase AY 30, solvent as labelled, 24 hrs
Description: Identical enzyme catalyzed SOA deacetylations were run in numerous anhydrous solvents. After 24 hrs incubation an aliquot was analyzed by HPLC.
(§2) Enzyme and Solvent Screening for SOA Deacetylation. A scintillation vial was charged successively with 100 mg of powdered enzyme as received or prepared as described and 1.0 ml of 20 mM sucrose octaacetate (SOA) dissolved in an organic solvent. Following a 5 sec sonication, the vial was incubated in a controlled-temperature shaker at 45° C. and 300 RPM for 24 hrs. A 200 μl aliquot of the reaction mixture was withdrawn and centrifuged. The supernatant was collected and evaporated under a stream of N2. The residue was reconstituted in 200 μl of acetonitrile and 10 μl of this solution was analyzed by HPLC.

lipase AY 30 [2] = assay: Effect of the solvent on lipase AY 30 catalyzed deacylation of SOP; assay type: biochemical, Candida cylindracea; conditions: for ShexaP (4.2 min) / SheptaP's (8.9 min) / SheptaP's (9.4 min) / SheptaP's ([…]): lipase AY 30, 24 hrs; for ShexaP (4.2 min): HPLC peak 4.2 min; for SheptaP's (8.9 min): HPLC peak 8.9 min; for SheptaP's (9.4 min): HPLC peak 9.4 min; for SheptaP's ([…]): HPLC peak […]; for SOA: lipase AY 30, solvent as labelled, 200 mM butanol, 24 hrs, peak 21.4 min; on SheptaP's ([…]): HPLC peak 8.2 min
Description: (§3) Identical SOP deacylations were performed with lipase AY 30 or protease type XXIII in numerous anhydrous organic solvents, as shown in Tables 12 and 13.
as §2, with “Solvent” for “Enzyme and Solvent”, “screening” for “Screening”, “SOP deacylation.” for “SOA Deacetylation.”, “lipase AY 30” for “powdered enzyme as received”, “protease type XXIII” for “prepared”, “octapropionate (SOP) and 200mM butanol” for “octaacetate (SOA)”

protease type XXIII = assay: Effect of the solvent on protease type XXIII catalyzed deacylation of SOP; assay type: biochemical, Aspergillus oryzae; conditions: 24 hrs; for SheptaP's (8.3 min): HPLC peak 8.3 min; for SheptaP's (8.9 min): HPLC peak 8.9 min; for SheptaP's (9.9 min): HPLC peak 9.9 min; for SOP: solvent as labelled
Description: as §3
as §2, with “Solvent” for “Enzyme and Solvent”, “screening” for “Screening”, “SOP deacylation.” for “SOA Deacetylation.”, “lipase AY 30” for “powdered enzyme as received”, “protease type XXIII” for “prepared”, “octapropionate (SOP) and 200mM butanol” for “octaacetate (SOA)”

OC1CCCCC1 [cyclohexanol]
% conv (proleather): 38.2%
regiochem (proleather): 3.9
regiochem (alcalase): 8.0
% conv (lipase AP 12): 25.0%
SOA (lipase AY 30 [1]): 96.8%
SheptaA (lipase AY 30 [1]): 2.9%
ShexaA (lipase AY 30 [1]): 0.3%

CCCO [propanol]
% conv (proleather): 46.4%
regiochem (proleather): 5.3
regiochem (alcalase): 8.8
% conv (lipase AP 12): 26.2%

CCC(C)=O [butanone]
ShexaP (4.2 min) (lipase AY 30 [2]): 0%
SheptaP's (8.9 min) (lipase AY 30 [2]): 0%
SheptaP's (9.4 min) (lipase AY 30 [2]): 0.2%
SheptaP's ([…]) (lipase AY 30 [2]): 0.9%
SOA (lipase AY 30 [2]): 98.9%
SheptaP's (8.3 min) (protease type XXIII): 1.0%
SheptaP's (8.9 min) (protease type XXIII): 0%
SheptaP's (9.9 min) (protease type XXIII): 0.2%
SOP (protease type XXIII): 98.8%

CC(C)NC(C)C [diisopropylamine]
% conv (proleather): 37.3%
regiochem (proleather): 4.9
increase in conversion relative to reaction with no added nucleophile (alcalase; 200 mM): at least 25%
regiochem (alcalase): 9.5
% conv (lipase AP 12): 3.2%

OCCC1CCCCN1 (stereo not drawn) [2-piperidineethanol]
% conv (proleather): 41.3%
regiochem (proleather): 5.1
regiochem (alcalase): 8.6
% conv (lipase AP 12): 10.4%

CC#N [acetonitrile]
ShexaP (4.2 min) (lipase AY 30 [2]): 0%
SheptaP's (8.9 min) (lipase AY 30 [2]): 0%
SheptaP's (9.4 min) (lipase AY 30 [2]): 0.2%
SheptaP's ([…]) (lipase AY 30 [2]): 1.1%
SOA (lipase AY 30 [2]): 98.7%
SheptaP's (8.3 min) (protease type XXIII): 1.1%
SheptaP's (8.9 min) (protease type XXIII): 0%
SheptaP's (9.9 min) (protease type XXIII): 0.5%
SOP (protease type XXIII): 98.4%
SOA (lipase AY 30 [1]): 98.6%
SheptaA (lipase AY 30 [1]): 1.4%
ShexaA (lipase AY 30 [1]): 0%

OCC1CCCCC1 [cyclohexylmethanol]
% conv (proleather): 42.8%
regiochem (proleather): 4.4
regiochem (alcalase): 8.1
% conv (lipase AP 12): 24.8%
